Assays:
[1] = tested on: Candida albicans strain SC5314; test: Test for inhibition of the formation of hyphae; format: cell-based; conditions: for hyphae formation (in words): at the concentrations used
Description: An initial culture of the Candida albicans strain SC5314 was grown overnight in minimal medium (0.67% yeast nitrogen base w/o amino acids (Difco), 2% glucose) up to an optical density of 1 at 600 nm, and washed once in sterile double-distilled H2O. For the induction of hyphae, 100 μl to 900 μl of YPS (1% yeast extract, 2% peptone, 10% horse serum (Sigma)) were added, and incubated at 37° C. with shaking. To test the inhibitory action of different substances, farnesol (50 μl/l), propolis extract (200 ppm in ethanolic solution, Sigma, P 5182, origin: Alsace, France) or fucoidan (2 mg/ml, Sigma, F 5631) were added to the medium. A culture of 100 μl of cell suspension in 900 μl of YPD medium (1% yeast extract, 2% peptone, 2% glucose) which was incubated at 30° C. with shaking was used as the control. To quantify the formation of hyphae, 2×100 cells were counted under the microscope (Zeiss Axioscope) every 20 min. and the germ tubes formed calculated as a percentage of the total cells.

C. albicans = test: Growth test; format: cell-based, Candida albicans; conditions: for Growth rate: YPD medium, 30° C., over 10 hours, reference 0.55
Description: The growth rates were measured over 10 hours in the YPD medium already described above. The optical density was initially set at 0.1 OD and the cultures were incubated at 30° C.
Here it was assumed that an optical density of 1 measured at wavelength 600 nm corresponds to about 10^7 cells.

[2] = tested on: C. albicans culture (strain SC5314); test: Adhesion test on textiles (tetrazolium blue staining, relative light reflection); format: cell-based, Candida albicans
Description: For assessment of the inhibitory action of different substances on the adhesion of fungi, a procedure with which this adhesion to textiles can be determined semi-quantitatively was developed.
A 50 ml C. albicans culture (strain SC5314) was grown overnight with shaking in a conical flask at 30° C. up to an optical density (OD) of ca. 1 (measured at 600 nm with a spectrophotometer). After washing once in water, the cells were again incubated for one hour at 30° C. with shaking. Next, 2.5 ml of the culture were diluted in 22.5 ml of YPD medium (1% yeast extract, 2% peptone, 2% glucose) or YPS medium (1% yeast extract, 2% peptone, 10% horse serum). The YPD cultures were incubated with shaking for 2 hours at 30° C., and the YPS cultures for 2 hours at 37° C. for the induction of hyphae.
As desired, test substance was added to the media. In addition a 2.5×2.5 cm piece of test fabric (polyester microfibers) was added to the media. After incubation, the textile pieces were washed three times with wash liquor (Perwoll powder, 12 ml/l water) and twice with water (5 min. with shaking each time), then transferred to a 6-well plate and covered with a layer of YPD-tetrazolium blue agar (1% yeast extract, 2% peptone, 2% glucose, 1.5% agar, 0.5 mg/ml tetrazolium blue chloride).
The depth of the blue coloration due to enzymatic conversion of the dyestuff tetrazolium blue chloride (3,3′-[3,3′-dimethoxy(1,1′-biphenyl)-4,4′-diyl]-bis-[2,5-diphenyl-2H-tetrazolium] dichloride (Sigma, T4375) by cellular dehydrogenases of adhered C. albicans served as a measure for the number of adhered Candida cells and was measured by measurement of the relative light reflection (measurement geometry d/8°) with a differential calorimeter (Dr. Lange Micro Color). The instrument was calibrated in accordance with the manufacturer's instructions. For this, the textile patches were dissolved out from the agar and subjected to the measurement with the differential calorimeter. In accordance with DIN 5033, the differential calorimeter determines the diffuse reflection of the samples at an angle of 8°.

Candida albicans = test: Wash tests, contamination with Candida albicans; format: cell-based; conditions: addition of farnesol to detergent, versus same detergent without
Description: The wash tests were performed in standard domestic washing machines (Miele W 918 Novotronic), which had previously been disinfected, in the delicates program at 30° C. The fungal cells were applied onto textile supports (polyamid, 2.5×2.5 cm) (2×10^5 cells/microbe support) and washed together with 3.5 kg of disinfected fill laundry with the detergent formulae. As the control, the wash was performed with the same detergent without farnesol. After the washing and drying in the air, both the residual microbial burden and also the microbial transfer to other, sterile textiles were determined.
The experiments were performed with the detergents A (addition of farnesol) and B (reference).
75 ml of the liquid detergent is added; this corresponds to a farnesol concentration of 20 ppm in the wash liquor.

[3] = description, no concentration given

Question: How did the “Effective inhibitory concentration (hyphae formation inhibiting concentration)” value (“Effective inhibitory concentration” for short) [1] turn out when CC=Cc1ccc(OC)cc1 [Anethole, 1-methoxy-4-(1-propenyl)benzene] was run?
Answer: 0.10% wt. %

Question: How did the Growth rate (C. albicans; 2 wt. %) turn out when CCO [Ethanol] was run?
Answer: 0.5 h⁻¹

Question: CC(C)=CCCC(C)=CCCC(C)=CCO [Farnesol, farnesol] was tested. Which Relative light reflection ([2]; 0.0025 wt. % test substance, polyester microfiber fabric, higher reflection = fewer adhered cells (YPD reference 48.7, YPS 44.7)) did it give?
Answer: 49.3

Question: What about the “adhesion of fungi to textiles (in words)” value ([2]; concentrations of Table 1) of the same molecule?
Answer: reduction in the adhesion of fungi to textiles down to almost complete inhibition of the adhesion

Question: And the “adhesion of fungal cells to surfaces (in words)” value ([2]; in solutions which contain the substance)?
Answer: scarcely or not at all

Question: And the “Number of hyphal cells formed” value ([1]; YPS + farnesol 0.005 wt. %, t 0 min, 37° C., YPS alone 0)?
Answer: 0

Question: And the “Number of hyphal cells formed” value ([1]; YPS + farnesol 0.005 wt. %, t 20 min, YPS alone 0)?
Answer: 0

Question: What about the “Number of hyphal cells formed” value ([1]; YPS + farnesol 0.005 wt. %, t 40 min, YPS alone 15) of the same molecule?
Answer: 0

Question: What about the “Number of hyphal cells formed” value ([1]; YPS + farnesol 0.005 wt. %, t 60 min, YPS alone 75) of the same molecule?
Answer: 3

Question: And the “hyphae formation (in words)” value [1]?
Answer: essentially complete prevention

Question: What about the Growth rate (C. albicans; 0.0025 wt. %) of the same molecule?
Answer: 0.51 h⁻¹

Question: What about the “cross contamination of other laundry items (in words)” value (Candida albicans) of the same molecule?
Answer: completely prevented

Question: What about the “residual microbial burden (in words)” value (Candida albicans) of the same molecule?
Answer: drastically reduced

Question: For CC(C)=CCC/C(C)=C/CO [Geraniol, geraniol], which “Effective inhibitory concentration” value [1] is on record?
Answer: 0.01% wt. %

Question: With O=C(O)/C=C/c1ccccc1 [Trans-cinnamic acid, trans-cinnamic acid] as the molecule, how does the “Effective inhibitory concentration” value [1] read?
Answer: 0.01% wt. %

Question: How did the “Number of hyphal cells formed” value ([1]; YPS + fucoidan 0.2 wt. %, t 0 min, YPS alone 0) turn out when fucoidan was run?
Answer: 0

Question: And the “Number of hyphal cells formed” value ([1]; YPS + fucoidan 0.2 wt. %, t 20 min, YPS alone 0)?
Answer: 0

Question: What about the “Number of hyphal cells formed” value ([1]; YPS + fucoidan 0.2 wt. %, t 40 min, YPS alone 15) of the same molecule?
Answer: 4

Question: What about the “Number of hyphal cells formed” value ([1]; YPS + fucoidan 0.2 wt. %, t 60 min, YPS alone 75) of the same molecule?
Answer: 25

Question: What about the “hyphae formation (in words)” value [1] of the same molecule?
Answer: marked reduction

Question: What about the “formation of hyphae by Candida albicans (in words)” value [1, 3] of the same molecule?
Answer: significantly reduced

Question: And the “cell growth (in words)” value (C. albicans; [3])?
Answer: not affected

Source: patent publication US20080118580A1, “ADHESION INHIBITION OF FUNGI” (priority 2001, published 2008)
